The values that follow come from patent US4634709A, “Platelet aggregation inhibitory agents and intermediates therefor” (Research Corporation, priority 1984, dated 1987).

SMILES strings stand for the structures. Structures can show the parent of a compound that is named as a salt.

The first series relates to human blood platelet aggregation, thrombin-induced. The series is described as follows: Inhibition of thrombin-induced human blood platelet aggregation (aggregometry, platelet-rich plasma). Type of series: cell-based. The note with it: 50 μM evaluant; human PRP; 1.0 unit α-thrombin/ml PRP. How it is done:
(§1) Adenosine diphosphate (ADP) used to induce platelet aggregation was employed as the sodium salt. A 10 mM stock solution was prepared fresh before each use in modified Tyrode's buffer and working dilutions were prepared with modified Tyrode's buffer immediately prior to use. The buffer contained NaCl (137.00 mM), KCl (2.70 mM), NaHCO3 (11.90 mM), NaH2 PO4.H2 O (0.36 mM) and glucose (5.60 mM) in redistilled water. Adjustment to pH 7.4 was effected by addition of 1N HCl. A solution of highly purified human α-thrombin (10,624 units/ml) wss stored at -70° C. in 10 μl aliquots. The latter were diluted with modified Tyrode's buffer to a concentration of 10.0 units/ml immediately prior to use.
Venous blood for the examples set forth below was collected in plastic syringes from healthy male volunteers (aged 21-30 years) who had fasted overnight and had abstained from all medications, alcohol, tobacco and caffeine for a period of at least one week prior to donations. In experiments employing ADP as the aggregation-inducing agent, the blood was transferred into siliconized centrifuge tubes containing 3.2% sodium citrate (blood/citrate ratio 8:1); in thrombin-induced aggregations, 3.8% sodium citrate (blood/citrate ratio 9:1) was used. The cirtrated whole blood was centrifuged at 120×g for 15 minutes at 23° C., yielding platelet-rich plasma (PRP); platelet-poor plasma (PPP) was obtained by centrifugation of citrated whole blood at 1,100×g for […] at 23° C. The platelet count of PRP was determined and adjusted to a final count of 300,000 platelets per mm^3 by dilution with autologous PPP. (Occasionally, blood from a given donor yielded PRP with a count lower than the stipulated figure; however, this was usually greater than 285,000, and never less than 250,000 platelets per mm^3.) The plasma so obtained was transferred in 1.2-ml aliquots to siliconized glass tubes, by means of a siliconized Pasteur pipet. In order to maintain plasma pH in the appropriate range, the air in the tubes was displaced gently (1 minute) with a 5% CO2 -95% air (v/v) mixture and the tubes sealed with Parafilm according to the method of Han et al, Br. J. Haematol. Vol. 26, pages 373-389 (1974). The plasma was maintained at 37° C. in a water bath until used in the aggregation experiments. […]
Initially, in each experiment, 0.45-ml aliquots of PRP were placed in siliconized cuvettes and stirred (1,100 rpm) in the aggregometer at 37° C. to ascertain the absence of spontaneous aggregation. […] In each case, the concentration of ADP so determined was used in eliciting aggregation throughout each specific set of aggregometric evaluations. […]
Consider `CCCCCCCCCCN1CCCC(C(=O)N2CCN(C(=O)C3CCCN(CCCCCCCCCC)C3)CC2)C1` (stereo not drawn) [Example 37, N,N'--Bis(1-decylnipecotoyl)piperazine Dihydriodide], for which the “% inhibition of aggregation, thrombin-induced” value is reported as 88.2%. On the same count and under the same terms, for `CCCCCCCCCCN1CCCC(C(=O)N(C)CCCCCCN(C)C(=O)C2CCCN(CCCCCCCCCC)C2)C1` (stereo not drawn) [Example 42, 1,6-Bis[N--(1-decylnipecotoyl)-N--methylamino]hexane Dihydriodide] the value was 88.3%.

Still in this series, the particulars now being: in words; FIG. 2.
Consider `CN(C)CCCN1c2ccccc2Sc2ccc(Cl)cc21` [chloropromazine, reference compound], for which the “effectiveness in thrombin-induced aggregation compared with the piperidine derivatives” value is given as “much less effective”.

The next series has as its system human blood platelet aggregation, ADP-induced. The series is described as follows: Inhibition of ADP-induced human blood platelet aggregation (aggregometry, platelet-rich plasma). Type of series: cell-based. Conditions: Homo sapiens, Platelet, read-out: % inhibition of aggregation, ADP-induced. How it is done: as §1
Venous blood for the examples set forth below was collected in plastic syringes from healthy male volunteers (aged 21-30 years) who had fasted overnight and had abstained from all medications, alcohol, tobacco and caffeine for a period of at least one week prior to donations. In experiments employing ADP as the aggregation-inducing agent, the blood was transferred into siliconized centrifuge tubes containing 3.2% sodium citrate (blood/citrate ratio 8:1); in thrombin-induced aggregations, 3.8% sodium citrate (blood/citrate ratio 9:1) was used. The cirtrated whole blood was centrifuged at 120×g for 15 minutes at 23° C., yielding platelet-rich plasma (PRP); platelet-poor plasma (PPP) was obtained by centrifugation of citrated whole blood at 1,100×g for […] at 23° C. The platelet count of PRP was determined and adjusted to a final count of 300,000 platelets per mm^3 by dilution with autologous PPP. (Occasionally, blood from a given donor yielded PRP with a count lower than the stipulated figure; however, this was usually greater than 285,000, and never less than 250,000 platelets per mm^3.) The plasma so obtained was transferred in 1.2-ml aliquots to siliconized glass tubes, by means of a siliconized Pasteur pipet. In order to maintain plasma pH in the appropriate range, the air in the tubes was displaced gently (1 minute) with a 5% CO2 -95% air (v/v) mixture and the tubes sealed with Parafilm according to the method of Han et al, Br. J. Haematol. Vol. 26, pages 373-389 (1974). The plasma was maintained at 37° C. in a water bath until used in the aggregation experiments.
Assays of platelet aggregation was performed at least in duplicate, using plasma acquired from different donors, employing a method developed by Quintana et al (Quintana et al, Thromb. Res., Vol. 22, pages 665-680 (1981); Quintana et al, Thromb. Res., Vol. 20, pages 405-415 (1980) (cf. Born, Nature, Vol. 194, pages 927-929 (1962) and Mustard et al, J. Lab. Clin. Med., Vol. 64, pages 548-559 (1964)).
Initially, in each experiment, 0.45-ml aliquots of PRP were placed in siliconized cuvettes and stirred (1,100 rpm) in the aggregometer at 37° C. to ascertain the absence of spontaneous aggregation. Appropriate ADP solutions (50 μl) were subsequently injected using a Hamilton microliter syringe to determine the minimal concentration eliciting maximal biphasic aggregation. This ranged from 2 μM to 8 μM (cf. Quintana et al, Thromb. Res., Vol. 22, pages 665-680 (1981); Quintana et al, Thromb. Res., Vol. 20, pages 405-415 (1980)). In each case, the concentration of ADP so determined was used in eliciting aggregation throughout each specific set of aggregometric evaluations. In all thrombin-induced aggregation experiments the same stimulus was applied; this constituted injection of 50 μl of the solution containing 10.0 units of α-thrombin/ml (affording a final concentration of 1.0 unit of α-thrombin/ml PRP).
0.5 μl of a solution of the evaluant compound in redistilled 95% ethanol was injected into a stirred (1,100 rpm) 0.45-ml aliquot of plasma in a siliconized cuvette in the aggregometer-well (37° C.). After 15 seconds, the cuvette was transferred to an incubator (also at 37° C.) and the contents held at this temperature, without stirring, until 2 minutes post-injection. […]
Consider `C[N+]1(CCCCCCCCCC[N+]2(C)CCCCC2)CCCCC1` [Example 33, 1,10-Bis(N--methylpiperidinium)decane Diiodide], for which the inhibition (usually the percentage by which the read-out fell short of the control) at 100 µM was 0%.

The series is the same for the next values; noted with them: Platelet; 10 μM evaluant; human PRP.
Turning to `CCCCCCCCCCN1CCCC(C(=O)N2CCN(C(=O)C3CCCN(CCCCCCCCCC)C3)CC2)C1` (stereo not drawn) [Example 37, N,N'--Bis(1-decylnipecotoyl)piperazine Dihydriodide], the inhibition at 10 µM turned out to be 48.3%.

Staying with this series, now noted: Platelet; 50 μM evaluant; human PRP; % reduction in maximal aggregation intensity vs control.
For `CN1CCCC(C(=O)NCCCCCCCCCCNC(=O)C2CCCN(C)C2)C1` (stereo not drawn) [Example 28, 1,10-Bis[N--(1-methylnipecotoyl)amino]decane Dihydriodide], the inhibition at 50 µM came to 30.9%.

`CCCCCCCCCCN1CCCC(C(=O)N2CCN(C(=O)C3CCCN(CCCCCCCCCC)C3)CC2)C1` (stereo not drawn) [Example 37, N,N'--Bis(1-decylnipecotoyl)piperazine Dihydriodide] displayed an inhibition at 50 µM of 93.8%. On the same count and under the same terms, the result for `c1ccc2c(c1)CCN(Cc1ccc(CN3CCc4ccccc4C3)cc1)C2` [Example 2, α,α'-Bis(1,2,3,4-tetrahydroisoquinolino)-p-xylene Dihydrobromide] reads 0%. The same measure, in the same setting: for `CCCCCCCCCCN(CCCCCCCCCC)C(=O)C1CCCN(Cc2ccc(CN3CCCC(C(=O)N(CCCCCCCCCC)CCCCCCCCCC)C3)cc2)C1` (stereo not drawn) [Example 16, α,α'-Bis[3-(N,N--didecylcarbamoyl)piperidino]-p-xylene Dihydrobromide] the value was 0%. Consider `CCCCCCCCCCN1CCCC(C(=O)N(CCCC)CCCCCCN(CCCC)C(=O)C2CCCN(CCCCCCCCCC)C2)C1` (stereo not drawn) [Example 43, 1,6-Bis[N--(1-decylnipecotoyl)-N--butylamino]hexane Dihydriodide], for which the inhibition at 50 µM was 38.6%. Still for that read-out and setting: for `CCCCCCCCCCNC(=O)C1CCCN(Cc2ccc(CN3CCCC(C(=O)NCCCCCCCCCC)C3)cc2)C1` (stereo not drawn) [Example 19, α,α'-Bis[3-(N--decylcarbamoyl)piperidino]-p-xylene Dihydrobromide] the value was 0%; for `Oc1ccc2c(c1)CCCN2CCCCCCCCCCN1CCCc2cc(O)ccc21` [Example 7, 1,10-Bis(6-hydroxy-1,2,3,4-tetrahydroquinolino)decane Dihydriodide], 25.9%.

`CCCCCCCCCCCCCCN1CCCc2cc(O)ccc21` [Example 12, 1-Tetradecyl-6-hydroxy-1,2,3,4-tetrahydroquinoline Hydriodide] registered an inhibition at 50 µM of 0%. On the same count and under the same terms, the result for `Oc1ccc2c(c1)CCCN2Cc1ccc(CN2CCCc3cc(O)ccc32)cc1` [Example 5, α,α'-Bis(6-hydroxy-1,2,3,4-tetrahydroquinolino)-p-xylene Dihydrobromide] reads 21.5%. For `CCCCCCCCCCN1CCCC(C(=O)N(C)CCCCCCN(C)C(=O)C2CCCN(CCCCCCCCCC)C2)C1` (stereo not drawn) [Example 42, 1,6-Bis[N--(1-decylnipecotoyl)-N--methylamino]hexane Dihydriodide], the inhibition at 50 µM amounted to 85.6%.

Compound `CCCCCCN1CCCc2cc(O)ccc21` [Example 11, 1-Hexyl-6-hydroxy-1,2,3,4-tetrahydroquinoline Hydriodide] yielded an inhibition at 50 µM of 37.2%. Still for that read-out and setting: the result for `CCCCCCCCCCN1CCCc2cc(O)ccc21` [Example 9, 1-Decyl-6-hydroxy-1,2,3,4-tetrahydroquinoline Hydriodide] reads 33%. `CCCCCCN1CCCC(C(=O)N(C)CCN(C)C(=O)C2CCCN(CCCCCC)C2)C1` (stereo not drawn) [Example 41, 1,2-Bis[N--(1-hexylnipecotoyl)-N--methylamino]ethane Dihydriodide] yielded an inhibition at 50 µM of 71.6%.

For `CCCCCCCCCCN1CCCC(C(=O)N(C)CCN(C)C(=O)C2CCCN(CCCCCCCCCC)C2)C1` (stereo not drawn) [Example 40, 1,2-Bis[N--(1-decylnipecotoyl)-N--methylamino]ethane Dihydriodide], the inhibition at 50 µM stood at 82.6%. Still for that read-out and setting: for `CCCCN(CCCC)C(=O)C1CCCN(Cc2ccc(CN3CCCC(C(=O)N(CCCC)CCCC)C3)cc2)C1` (stereo not drawn) [Example 14, α,α'-Bis[3-(N,N--dibutylcarbamoyl)piperidino]-p-xylene Dihydrobromide] the value was 49.7%; for `CCCCCCN1CCCC(C(=O)N(CCCC)CCCCCCN(CCCC)C(=O)C2CCCN(CCCCCC)C2)C1` (stereo not drawn) [Example 44, 1,6-Bis[N--(1-hexylnipecotoyl)-N--butylamino]hexane Dihydriodide], 72.4%.

Still in this series, the particulars now being: Platelet; 100 μM evaluant; human PRP; read-out: % inhibition of aggregation, ADP-induced.
Turning to `CCCCCCCCCCNC(=O)C1CCCN(C)C1` (stereo not drawn) [Example 25, 1-Methyl-3-(N--decylcarbamoyl)piperidine Hydriodide], the inhibition at 100 µM was 45.6%.

As for `CCCCCCCCN(C)C(=O)C1CCCN(C)C1` (stereo not drawn) [Example 22, 1-Methyl-3-(N--methyl-N--octylcarbamoyl)piperidine Hydriodide], the inhibition at 100 µM was found to be 33.1%. The same measure, in the same setting: the result for `CCCCCCCCN(C)C(=O)C1CCCNC1` (stereo not drawn) [Example 21, N--Methyl-N--octylnipecotamide] reads 49.9%; that for `CCCCN(CCCC)C(=O)C1CCCN(C)C1` (stereo not drawn) [Example 23, 1-Methyl-3-(N,N--dibutylcarbamoyl)piperidine Hydriodide], 11.8%. As for `CCCCCCN1CCCc2cc(O)ccc21` [Example 11, 1-Hexyl-6-hydroxy-1,2,3,4-tetrahydroquinoline Hydriodide], the inhibition at 100 µM amounted to 45.9%. On the same count and under the same terms, for `CCCCN(CCCC)C(=O)c1cccnc1` [Example 13, N,N--Dibutylnicotinamide] the value was 0%; for `CCCCCCCCN(C)C(=O)c1cccnc1` [Example 20, N--Methyl-N--octylnicotinamide], 12.1%.

Staying with this series, now noted: Platelet; 500 μM evaluant; human PRP.
Regarding `CN1CCCC(C(=O)NCCCCCCNC(=O)C2CCCN(C)C2)C1` (stereo not drawn) [Example 31, 1,6-Bis[N--(1-methylnipecotoyl)amino]hexane Dihydriodide], 500 µM produced 17% inhibition.

As to `O=C(C1CCCNC1)N1CCN(C(=O)C2CCCNC2)CC1` (stereo not drawn) [Example 35, N,N'--Bis(nipecotoyl)piperazine Dihydrobromide], the inhibition at 500 µM was determined as 48.9%. As to `CN(CCN(C)C(=O)C1CCCNC1)C(=O)C1CCCNC1` (stereo not drawn) [Example 39, 1,2-Bis(N-nipecotoyl-N-methylamino)ethane dihydrobromide], the inhibition at 500 µM stood at 46.3%.

The series is the same for the next values; noted with them: Table 1 footnote 5.
With `c1ccc2c(c1)CCN(Cc1ccc(CN3CCc4ccccc4C3)cc1)C2` [Example 2, α,α'-Bis(1,2,3,4-tetrahydroisoquinolino)-p-xylene Dihydrobromide], the “ADP-induced platelet aggregation inhibition, in words” value was “inactive”.

The series is the same for the next values; noted with them: in words.
Take `CN(C)CCCN1c2ccccc2Sc2ccc(Cl)cc21` [chloropromazine, reference compound]: the “effectiveness in ADP-induced aggregation compared with the piperidine derivatives” value was “considerably less effective”.

For another series, the system named is platelet aggregation, ADP-induced.
Assay: not given
The note with it: 250 μM; Cucuiani et al; cited from earlier work.
As to `OCCN(CCO)c1nc(N2CCCCC2)c2nc(N(CCO)CCO)nc(N3CCCCC3)c2n1` [dipyridamole], the “inhibition in ADP-induced aggregation” value is recorded as 10%.

The same series, now with this note: 2,470 μM; Packham et al; cited from earlier work.
As to `O=C1C(CC[S+]([O-])c2ccccc2)C(=O)N(c2ccccc2)N1c1ccccc1` (stereo not drawn) [sulfinpyrazone], the “inhibition in ADP-induced aggregation” value is 0%.

System in a further series: not given
Assay: not given
The note with it: literature; cited from earlier work.
Take `O=C(O)C1CCCNC1` (stereo not drawn) [nipecotic acid, Piperidine-3-carboxylic acid]: the “deleterious / adverse effects” value is listed as “has not been discerned to have deleterious effects”.
